The text below walks through data of US9440969B2, “Compounds and methods for kinase modulation, and indications therefor” (PLEXXIKON INC., priority 2009, dated 2016).

Some results are limits rather than exact numbers.

One data set has as its target B-Raf (Homo sapiens, UniProt P15056). Nature of the data set: B-Raf kinase activity assay (AlphaScreen, biotin-MEK1 substrate). To be noted: 100 μM ATP, 100 nM biotin-MEK1, 45 minutes at room temperature; read-out: Biochemical activity (IC50 μM) B-Raf. As to the method:
(§1) Assays for biochemical and cell based activity are known in the art, for example, as described in PCT publication WO 2007/002433, the disclosure of which is hereby incorporated by reference as it relates to such assays. For example, the biochemical activity IC50 values are determined with respect to inhibition of B-Raf kinase activity, c-Raf-1 kinase activity, or B-Raf V600E kinase activity, where inhibition of phosphorylation of a peptide substrate is measured as a function of compound concentration. Compounds to be tested are diluted in dimethyl sulfoxide to a concentration of 0.1 mM. These are serially diluted 15 μL into 30 μL of dimethyl sulfoxide seven times in 96 well plates for a total of 8 dilution points, and for each dilution point 1 μL is added to a well of an assay plate. Plates are prepared such that each well in a 384 well plate contains 1 μL of compound in 10 μL, volume with 0.1 ng Raf enzyme (i.e. any of B-Raf, c-Raf-1 or B-Raf V600E, Upstate Biotechnology or prepared by methods known to one of skill in the art), 50 mM HEPES, pH 7.0, 50 mM NaCl, 2 mM MgCl2, 1 mM MnCl2, 0.01% Tween-20, 1 mM DTT, and 100 nM biotin-MEK1 as substrate. The reaction is started with addition of 10 μL of 200 μM ATP (i.e. final 100 μM ATP). After incubation of the kinase reaction for 45 minutes at room temperature, 5 μL/well of Stop Solution is added (25 mM Hepes pH 7.5, 100 mM EDTA, 0.01% BSA with donor beads (Streptavidin coated beads, Perkin Elmer), acceptor beads (Protein A coated, Perkin Elmer), and anti phosphor MEK1/2 antibody (CellSignal), each at final concentration 10 μg/mL). The plates are incubated for 3 hours at room temperature and read on Envision reader (Perkin Elmer). Phosphorylation of Mek1 results in binding of the anti-phosphor-MEK1/2 antibody and association of the donor and acceptor beads such that signal correlates with kinase activity. The signal vs. compound concentration is used to determine the IC50.

Another data set has as its target B-Raf V600E (Homo sapiens, UniProt P15056, V600E). Nature of the data set: B-Raf V600E kinase activity assay (AlphaScreen, biotin-MEK1 substrate). To be noted: 100 μM ATP, 100 nM biotin-MEK1, 45 minutes at room temperature, read-out: Biochemical activity (IC50 μM) V600E. The protocol:
as §1

A further data set deals with c-Raf-1 (Homo sapiens, UniProt P04049). Nature of the data set: c-Raf-1 kinase activity assay (AlphaScreen, biotin-MEK1 substrate). To be noted: 100 μM ATP, 100 nM biotin-MEK1, 45 minutes at room temperature; read-out: Biochemical activity (IC50 μM) c-Raf-1. As to the method: as §1
c-Raf-1, sequence (P04049 whole entry Y340D/Y341D, form open): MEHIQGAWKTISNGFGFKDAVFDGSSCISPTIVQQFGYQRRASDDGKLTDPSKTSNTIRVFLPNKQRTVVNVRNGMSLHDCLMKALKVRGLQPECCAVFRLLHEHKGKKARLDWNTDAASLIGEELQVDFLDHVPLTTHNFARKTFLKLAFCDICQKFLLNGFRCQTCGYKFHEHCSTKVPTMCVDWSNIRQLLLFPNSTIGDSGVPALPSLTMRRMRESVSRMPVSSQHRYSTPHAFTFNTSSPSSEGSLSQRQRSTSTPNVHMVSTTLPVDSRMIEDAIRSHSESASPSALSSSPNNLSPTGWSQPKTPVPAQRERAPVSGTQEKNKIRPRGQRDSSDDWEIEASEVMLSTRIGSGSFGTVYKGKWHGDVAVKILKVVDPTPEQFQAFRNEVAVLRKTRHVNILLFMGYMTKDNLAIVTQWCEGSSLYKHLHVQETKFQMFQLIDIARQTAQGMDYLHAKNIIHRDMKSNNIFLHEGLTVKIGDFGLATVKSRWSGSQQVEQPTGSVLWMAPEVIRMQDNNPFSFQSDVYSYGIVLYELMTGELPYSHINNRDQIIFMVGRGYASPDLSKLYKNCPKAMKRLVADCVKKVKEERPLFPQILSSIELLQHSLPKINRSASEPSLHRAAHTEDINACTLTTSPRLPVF
The nature of data set [1]: Relative solubility by turbidity in aqueous buffers (pH 1.5, 4.5, 6.8, 7.4). The format is physicochemical. To be noted: for turbidity threshold (L, M, H) 1.4: pH 1.5 buffer (SGF); for turbidity threshold (L, M, H) 4.5: pH 4.5 buffer (SIF); for turbidity threshold (L, M, H) 6.8: pH 6.8 buffer (SIF); for turbidity threshold (L, M, H) 7.4: pH 7.4 buffer (HEPES). As to the method: As an indication of relative solubility, the turbidity of compounds in aqueous solutions is assessed. To assess possible compound properties in different physiological compartments, such as stomach, intestine, and blood, a series of aqueous buffers with varying pH is used. Thus each compound is diluted into four different physiologically relevant buffers and solution turbidity is measured by spectrophotometry.
Compounds are dissolved at a concentration of 25 mM in dimethyl sulfoxide, then serially diluted 1:1 into a 96 well plate, diluting 10 times in pure dimethyl sulfoxide, with the final well of each row a dimethyl sulfoxide blank. In an assay plate, 99 μL of appropriate buffer is added to each well, and 1 μL of each sample dilution is added to the buffer, achieving a range of final total concentrations in aqueous solutions having different pH. The buffers used are Simulated Gastric Fluid (SGF-pH 1.5) 0.5M NaCl, pH 1.5; Simulated Intestinal fluid (SIF-pH 4.5 and pH 6.8) 0.05M NaH2PO4, pH 4.5 and 6.8; and Hepes Buffer (HEPES-pH 7.4) 10 mM HEPES, 150 mM NaCl, pH 7.4. Control compounds pyrene, estriol and propranolol HCl are also assessed. Plates are spun and then mixed for 1 minute, and the absorbance is read using a Tecan Safire II to read wavelengths in the visible range (490, 535, and 650 nm) at four locations per well, reflecting the degree of turbidity present. The average optical density for each wavelength in each well is graphed vs. compound concentration, and the concentration at which the curve crosses a threshold O.D. of 0.01 for each wavelength is reported as the endpoint turbidity assay result. The average of the three wavelengths is used to compare turbidity of compounds. Compounds are considered to have low solubility if the threshold concentration is <31.3 μM, moderate solubility if the threshold concentration is 31.3 μM to 250 μM, and high solubility if the threshold concentration is >250 μM.
The following table indicates the relative solubility (L=low, M=moderate, H=high) based on turbidity threshold concentration at each pH for exemplary compounds according to the invention: […]

B-Raf, sequence (P15056 whole entry): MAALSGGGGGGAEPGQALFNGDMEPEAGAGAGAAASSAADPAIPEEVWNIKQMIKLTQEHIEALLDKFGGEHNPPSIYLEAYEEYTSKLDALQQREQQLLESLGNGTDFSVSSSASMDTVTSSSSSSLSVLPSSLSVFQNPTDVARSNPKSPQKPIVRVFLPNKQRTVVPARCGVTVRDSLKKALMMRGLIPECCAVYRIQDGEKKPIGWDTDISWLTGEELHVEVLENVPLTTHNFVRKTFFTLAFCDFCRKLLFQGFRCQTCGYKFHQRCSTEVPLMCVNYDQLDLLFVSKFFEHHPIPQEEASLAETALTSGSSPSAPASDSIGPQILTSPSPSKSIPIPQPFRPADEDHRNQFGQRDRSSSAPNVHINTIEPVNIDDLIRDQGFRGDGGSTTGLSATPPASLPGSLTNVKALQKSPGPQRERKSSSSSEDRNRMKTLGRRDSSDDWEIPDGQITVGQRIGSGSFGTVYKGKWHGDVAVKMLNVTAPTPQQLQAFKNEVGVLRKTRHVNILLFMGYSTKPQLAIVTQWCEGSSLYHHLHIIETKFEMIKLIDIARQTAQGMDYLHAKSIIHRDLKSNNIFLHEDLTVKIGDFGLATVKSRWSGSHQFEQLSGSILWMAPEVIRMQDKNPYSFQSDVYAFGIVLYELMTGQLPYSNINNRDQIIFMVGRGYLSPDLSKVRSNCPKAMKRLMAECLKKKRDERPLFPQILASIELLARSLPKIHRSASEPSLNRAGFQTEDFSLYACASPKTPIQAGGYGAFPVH
B-Raf V600E, sequence (P15056 whole entry V600E): as the sequence (P15056 whole entry) above, with V600E counted along it

In the case of `Cc1cc(-c2cnc3[nH]cc(C(=O)c4c(F)ccc(NS(=O)(=O)c5cc(F)ccc5F)c4F)c3c2)n(C)n1` [P-1010, N-{3-[5-(2,5-Dimethyl-2H-pyrazol-3-yl)-1H-pyrrolo[2,3-b]pyridine-3-carbonyl]-2,4-difluoro-phenyl}-2,5-difluoro-benzenesulfonamide], the IC50 at B-Raf is < 0.1 µM. For the same compound, the IC50 at B-Raf V600E was < 0.1 µM. Moreover, the IC50 at c-Raf-1 was < 0.1 µM. In data set [1], the “turbidity threshold (L, M, H) 1.4” value is recorded as “M (moderate solubility if the threshold concentration is 31.3 μM to 250 μM)”; the “turbidity threshold (L, M, H) 4.5” value is reported as “L (low solubility if the threshold concentration is <31.3 μM)”; the “turbidity threshold (L, M, H) 6.8” value was “L (low solubility if the threshold concentration is <31.3 μM)”; the “turbidity threshold (L, M, H) 7.4” value is “M (moderate solubility if the threshold concentration is 31.3 μM to 250 μM)”.

On to `CONC(=O)c1cccc(-c2cnc3[nH]cc(C(=O)c4c(F)ccc(NS(=O)(=O)c5cc(F)ccc5F)c4F)c3c2)c1` [P-1704, 3-{3-[3-(2,5-Difluoro-benzenesulfonylamino)-2,6-difluoro-benzoyl]-1H-pyrrolo[2,3-b]pyridin-5-yl}-N-methoxy-benzamide], for which the IC50 on B-Raf was < 0.1 µM. In addition, the IC50 at B-Raf V600E was < 0.1 µM. Besides, the IC50 on c-Raf-1 is < 0.1 µM. Also, in data set [1], the “turbidity threshold (L, M, H) 1.4” value is reported as “L (low solubility if the threshold concentration is <31.3 μM)”; the “turbidity threshold (L, M, H) 4.5” value is on record as “L (low solubility if the threshold concentration is <31.3 μM)”; the “turbidity threshold (L, M, H) 6.8” value is recorded as “L (low solubility if the threshold concentration is <31.3 μM)”; the “turbidity threshold (L, M, H) 7.4” value is listed as “L (low solubility if the threshold concentration is <31.3 μM)”.

For `CONC(=O)c1ccc(-c2cnc3[nH]cc(C(=O)c4c(F)ccc(NS(=O)(=O)c5cc(F)ccc5F)c4F)c3c2)cc1` [P-1705, 4-{3-[3-(2,5-Difluoro-benzenesulfonylamino)-2,6-difluoro-benzoyl]-1H-pyrrolo[2,3-b]pyridin-5-yl}-N-methoxy-benzamide], the IC50 on B-Raf is < 0.1 µM. The half-maximal inhibitory concentration (IC50) on B-Raf V600E was < 0.1 µM. Also, the IC50 on c-Raf-1 is < 0.1 µM. In data set [1], the “turbidity threshold (L, M, H) 1.4” value is listed as “M (moderate solubility if the threshold concentration is 31.3 μM to 250 μM)”; the “turbidity threshold (L, M, H) 4.5” value is recorded as “L (low solubility if the threshold concentration is <31.3 μM)”; the “turbidity threshold (L, M, H) 6.8” value is “L (low solubility if the threshold concentration is <31.3 μM)”; the “turbidity threshold (L, M, H) 7.4” value is reported as “L (low solubility if the threshold concentration is <31.3 μM)”.

As for `Cn1ccc(-c2cnc3[nH]cc(C(=O)c4c(F)ccc(NS(=O)(=O)c5cc(F)ccc5F)c4F)c3c2)n1` [P-1011, N-{2,4-Difluoro-3-[5-(1-methyl-1H-pyrazol-3-yl)-1H-pyrrolo[2,3-b]pyridine-3-carbonyl]-phenyl}-2,5-difluoro-benzenesulfonamide], the concentration for half-maximal inhibition (IC50) on B-Raf was < 0.1 µM. Also, the 50% inhibitory concentration (IC50) at B-Raf V600E was < 0.1 µM. For the same compound, on c-Raf-1, the IC50 is < 0.1 µM. In addition, in data set [1], the “turbidity threshold (L, M, H) 1.4” value is “L (low solubility if the threshold concentration is <31.3 μM)”; the “turbidity threshold (L, M, H) 4.5” value is “L (low solubility if the threshold concentration is <31.3 μM)”; the “turbidity threshold (L, M, H) 6.8” value is “M (moderate solubility if the threshold concentration is 31.3 μM to 250 μM)”; the “turbidity threshold (L, M, H) 7.4” value is “M (moderate solubility if the threshold concentration is 31.3 μM to 250 μM)”.
